Measured values taken from PMC8557901 (Microbiology Spectrum, 2021).

Columns and labels:
[1] = MTT cell viability assay, human primary hepatocytes; format: cell-based
From the text: Primary human hepatocytes were isolated from liver segments obtained from adult patients undergoing partial hepatectomy (Service de Chirurgie Digestive, Hépato-Bilio Pancréatique, Hôpital Pitié Salpêtrière, Paris, France). Primary simian hepatocytes were isolated from liver segments collected from healthy Macaca fascicularis monkeys from CEA, Fontenay aux Roses, France. All hepatocytes were obtained using collagenase perfusion as previously described ([40]). Simian hepatocytes were immediately cryopreserved with a Nicool-Freezal controlled rate freezer (Air Liquide Santé, Marne la Vallée, France) and then used when needed after fast thawing at 37°C. Primary murine hepatocytes were isolated from liver segments collected from BALB/c mice. Human and murine hepatocytes were used directly after their isolation. Cells were seeded in 96-well plates (Falcon; Becton Dickinson Labware Europe, France) coated with collagen I (BD Bioscience, USA) at a density of 80,000 cells per well. […]
The toxicity of M1 toward primary hepatocytes and HepG2-CD81 cells was evaluated through the MTT {[3-(4,5-dimethyl-2-thiazolyl)-2,5-diphenyl-2H-tetrazolium bromide]} test ([42]). […] Then, MTT was replaced by a mixture of DMSO-ethanol (1:1) to dissolve formazan crystals and the absorbance was read at 540 nm on a FlexStation plate reader.

[2] = test system: P. yoelii in HepG2-CD81 cells; design: method as in PMID 25791675; details: liver stage of Plasmodium yoelii infecting HepG2-CD81 cells; cited from earlier work
[3] = design: method as in PMID 25791675; details: cited from earlier work
[4] = test system: P. yoelii liver-stage parasites in murine primary hepatocytes; experiment: In vitro liver-stage development, P. yoelii in murine primary hepatocytes; format: cell-based, Plasmodium yoelii
From the text: P. yoelii 230-GFP-Luc sporozoites are mutant parasites expressing a green fluorescent protein (GFP)-luciferase cassette generated by the gene out marker out (GOMO) strategy ([39]).
Primary human hepatocytes were isolated from liver segments obtained from adult patients undergoing partial hepatectomy (Service de Chirurgie Digestive, Hépato-Bilio Pancréatique, Hôpital Pitié Salpêtrière, Paris, France). Primary simian hepatocytes were isolated from liver segments collected from healthy Macaca fascicularis monkeys from CEA, Fontenay aux Roses, France. All hepatocytes were obtained using collagenase perfusion as previously described ([40]). […] Primary murine hepatocytes were isolated from liver segments collected from BALB/c mice. Human and murine hepatocytes were used directly after their isolation. Cells were seeded in 96-well plates (Falcon; Becton Dickinson Labware Europe, France) coated with collagen I (BD Bioscience, USA) at a density of 80,000 cells per well. […] For human hepatocytes, the complete medium was supplemented with 2% dimethyl sulfoxide (DMSO; Sigma-Aldrich, USA) before infection to preserve their differentiation.
On the day of infection, 3 · 10^4 sporozoites of P. falciparum, P. yoelii, and P. cynomolgi were added to their respective host cell cultures (human, murine, and simian). The infected culture plates were centrifuged for 10 min at 900 × g, allowing fast parasite sedimentation, and further incubated with serial dilutions of M1. Culture medium containing the appropriate drug concentration was refreshed daily, and cells were fixed at 48 h postinfection (p.i.) for infections with P. yoelii, 6 days p.i. for P. falciparum, or 8 days p.i. for P. cynomolgi. For the in vitro sporozoite invasion experiments, P. falciparum sporozoites were preincubated with 1, 10, and 100 μM M1 for 1 h at room temperature before hepatocyte infections. Three hours later, after sporozoite penetration into hepatocytes, cultures were washed and then further incubated with or without the presence of the drug during 6 days. DMSO was used as a negative control.
The number, size, and shape of the parasites were determined using a CellInsight high-content screening platform equipped with Studio HCS software (ThermoFisher Scientific). […] Host cell and parasite nuclei were labeled with DAPI (4′,6-diamidino-2-phenylindole). […] The custom script used for counting and measuring parasites first required identification of the objects based on a fluorescence intensity threshold. The object identity was then further validated based on size and morphological (shape) criteria. The presence of DAPI-associated fluorescence in the selected objects allowed their final selection and the rejection of false positives. […] The parasitic size reduction was calculated on the average object area using the total surface area of each selected object (μm^2).

**Q.** With Cc1ccc(-c2cc3nc(NC(C)(C)C)[nH]c(=O)c3s2)cc1 [Metabolite M1, 2-(tert-Butylamino)-6-(p-tolyl)thieno[3,2-d]pyrimidin-4(3H)-one] as the compound, how does the CC50 at 5 days [1] read?
**A.** Its CC50 at 5 days is > 60 µM.

**Q.** And the EC50 [2]?
**A.** The EC50 was 0.035 µM.

**Q.** What about the Ames test [3] of the same compound?
**A.** The Ames test was “negative”.

**Q.** What about the EC50 ([4]; Plasmodium yoelii, Hepatocyte, P. yoelii in murine primary hepatocytes (MH), mean ± SEM of triplicate experiments, read-out: EC50 against liver-stage parasites) of the same compound?
**A.** Its EC50 is 0.45 ± 0.1 µM.

**Q.** What about the “SI (selectivity index)” value ([4]; hepatocyte CC50/EC50, P. yoelii (MH)) of the same compound?
**A.** Its value is >133.

**Q.** And the “Size reduction at 10 μM (%)” value ([4]; parasite (schizont) size, 10 μM, P. yoelii (MH))?
**A.** The value was 100%.
